According to paper PMC2662861, “An unexpected phosphate binding site in Glyceraldehyde 3-Phosphate Dehydrogenase: Crystal structures of apo, holo and ternary complex of Cryptosporidium parvum enzyme” (BMC Structural Biology, 2009):

Target: T1, CpGAPDH (Cryptosporidium parvum glyceraldehyde 3-phosphate dehydrogenase) (Cryptosporidium parvum, UniProt Q7YYQ9)
T1 construct: gene cgd6_3790; recombinant, N-terminal hexa-histidine tag kept, expressed in E. coli; homotetramer
Assay: X-ray crystal structure, […] Å, co-crystallized
Format: binding
Conditions: holoenzyme; 2 mM NAD; pH 7.5; NAD in all four subunits

T1 sequence (Q7YYQ9 1-339): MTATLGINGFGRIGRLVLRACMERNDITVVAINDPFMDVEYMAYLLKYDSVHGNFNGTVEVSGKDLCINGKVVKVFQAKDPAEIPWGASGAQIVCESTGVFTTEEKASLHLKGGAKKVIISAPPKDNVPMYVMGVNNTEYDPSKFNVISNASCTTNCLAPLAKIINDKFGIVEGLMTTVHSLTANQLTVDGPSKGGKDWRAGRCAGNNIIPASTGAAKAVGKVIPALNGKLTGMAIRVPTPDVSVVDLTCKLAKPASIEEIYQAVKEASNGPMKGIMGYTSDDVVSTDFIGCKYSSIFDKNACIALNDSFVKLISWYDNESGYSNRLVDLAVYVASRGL

## NC(=O)c1ccc[n+]([C@@H]2O[C@H](COP(=O)(O)OP(=O)(O)OC[C@H]3O[C@@H](n4cnc5c(N)ncnc54)[C@H](O)[C@@H]3O)[C@@H](O)[C@H]2O)c1 [NAD]
  X-ray crystal structure, 2.0 Å, co-crystallized: The holoenzyme form of CpGAPDH contains one NAD molecule in each subunit
